Results taken from ChEMBL document CHEMBL1201862, “PubChem BioAssay data set” (2004).
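48-hour exposure; five concentrations; linearly interpolated endpoints. GI50 = concentration required for 50% inhibition of growth.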 Calls of active or inactive are those of the source. No stated cut-off is given here; in the data, active = GI50 up to about 1.1 µM and inactive = higher.

How the values were obtained:
Test in all cases: DTP human tumour cell line panel, 48 h
[1] = system: TK-10
[2] = system: HCT-116
[3] = system: SNB-19
[4] = system: ACHN
[5] = system: OVCAR-4
[6] = system: SK-MEL-28
[7] = system: A549
[8] = system: HCT-15
[9] = system: COLO 205
[10] = system: CAKI-1
[11] = system: NCI-H226
[12] = system: UACC-62
[13] = system: SW-620
[14] = system: EKVX
[15] = system: MOLT-4
[16] = system: KM12
[17] = system: MDA-MB-231
[18] = system: T47D
[19] = system: SK-OV-3
[20] = system: NCI-H23

Row | SMILES | GI50 [1] | GI50 [2] | GI50 [3] | GI50 [4] | GI50 [5] | GI50 [6] | GI50 [7] | GI50 [8] | GI50 [9] | GI50 [10] | GI50 [11] | GI50 [12] | GI50 [13] | GI50 [14] | GI50 [15] | GI50 [16] | GI50 [17] | GI50 [18] | GI50 [19] | GI50 [20]
1 | COc1cc2c(cc1O)CCN[C@@]21CS[C@H]2c3c(OC(C)=O)c(C)c4c(c3C(COC1=O)N1C2C2c3c(cc(C)c(OC)c3O)CC([C@@H]1O)N2C)OCO4 (stereo not given in full) | < 0.0001 µM (active) | 0.0001 µM (active) | < 0.0001 µM (active) | < 0.0001 µM (active) | < 0.0001 µM (active) | < 0.0001 µM (active) | < 0.0001 µM (active) | 0.0001 µM | < 0.0001 µM (active) | < 0.0001 µM (active) | < 0.0001 µM (active) | < 0.0001 µM (active) | < 0.0001 µM (active) | < 0.0001 µM (active) | < 0.0001 µM (active) | < 0.0001 µM (active) | < 0.0001 µM (active) | 0.00296 µM (active) | 0.0001 µM (active) | < 0.0001 µM (active)
2 | CC(=O)Nc1sc([N+](=O)[O-])cc1S(=O)(=O)c1ccc(Cl)cc1 | 5.28 µM (inactive) | 2.99 µM (inactive) | 3.31 µM (inactive) | 2.36 µM (inactive) | 1.86 µM (inactive) | 11 µM (inactive) | 2.4 µM (inactive) | 3.85 µM | 1.29 µM (inactive) | 3.31 µM (inactive) | 3.96 µM (inactive) | 1.67 µM (inactive) | 5.37 µM (inactive) | 3.59 µM (inactive) | 3.78 µM (inactive) | 2.99 µM (inactive) | 4.23 µM (inactive) | 2.04 µM (inactive) | 2.5 µM (inactive) | 2.39 µM (inactive)
3 | O=[N+]([O-])c1ccc2c(c1)Cc1cc(/N=C/c3ccc4c(c3)OCO4)ccc1-2 | > 100 µM (inactive) | > 100 µM (inactive) | > 100 µM (inactive) | > 100 µM (inactive) | > 100 µM (inactive) | > 100 µM (inactive) | > 100 µM (inactive) | > 100 µM | > 100 µM (inactive) | > 100 µM (inactive) | > 100 µM (inactive) | > 100 µM (inactive) | > 100 µM (inactive) | 57.1 µM (inactive) | > 100 µM (inactive) | > 100 µM (inactive) | > 100 µM (inactive) | > 100 µM (inactive) | > 100 µM (inactive) | > 100 µM (inactive)
